According to publication PMC7035293, “Structural ensemble of a glutamate transporter homologue in lipid nanodisc environment” (Nature Communications, 2020):

What was measured:
GltTk = molecular target: T1, GltTk (Thermococcus kodakarensis, UniProt Q5JID0); test: cryo-EM structure of the complex in lipid nanodiscs; conditions: 300 mM Na+, aspartate binding site
T1 construct: gene TK0986; C-terminal His8 tag, expressed in E. coli MC1061 (pBAD24-derived plasmid), purified apo, reconstituted in MSP2N2 lipid nanodiscs; homotrimer
T1 sequence (Q5JID0 entry or part of it): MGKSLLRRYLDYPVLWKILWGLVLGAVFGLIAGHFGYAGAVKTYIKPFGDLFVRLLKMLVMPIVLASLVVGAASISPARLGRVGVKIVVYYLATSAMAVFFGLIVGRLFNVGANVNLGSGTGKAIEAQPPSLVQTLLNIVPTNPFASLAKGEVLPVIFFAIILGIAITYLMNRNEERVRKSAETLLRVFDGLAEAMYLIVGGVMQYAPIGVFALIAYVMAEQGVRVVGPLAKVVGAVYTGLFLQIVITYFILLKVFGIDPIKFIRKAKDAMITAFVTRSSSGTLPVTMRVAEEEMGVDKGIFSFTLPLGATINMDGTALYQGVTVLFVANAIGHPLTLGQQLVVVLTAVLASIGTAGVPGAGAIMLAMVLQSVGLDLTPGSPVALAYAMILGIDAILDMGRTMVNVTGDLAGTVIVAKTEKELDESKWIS

[1] = molecular target: glutamate transporter homologue GltTk from Thermococcus kodakarensis (Thermococcus kodakarensis) (UniProt Q5JID0); test: cryo-EM structure; GltTk in MSP2N2 nanodiscs (E. coli polar lipids:egg PC 3:1 w/w), 20 mM Tris-HCl pH 8.0, 300 mM NaCl; five structures: Na+-only, L-aspartate unsaturated (two structures), L-aspartate saturated, 120 uM DL-TBOA; 200 keV Talos Arctica

NC(C(=O)O)C(OCc1ccccc1)C(=O)O (racemic) [DL-TBOA]
cryo-EM structure of the complex in lipid nanodiscs (GltTk; pH 8.0, 120 uM DL-TBOA with 4.5 uM nanodiscs, competitive, outward-open state, two of three protomers occupied): The fully-outward protomers have wide open HP2 gates

N[C@@H](CC(=O)O)C(=O)O [L-aspartate]
cryo-EM structure of the complex in lipid nanodiscs (GltTk; pH 8.0, 50 uM L-aspartate with 5.6 uM nanodiscs, intermediate-outward occluded state, also sub-saturating structures 6XWO and 6XWP): density for the amino acid substrate in the binding site is observed

glutamate transporter homologue GltTk from Thermococcus kodakarensis (from UniProt Q5JID0 1-430) (natural protein)
stoichiometry N [1]: 3
